Values joined by “and” are separate entries in the source; they are usually repeats but may differ in a detail not shown here. Equal entries are not always repeated. Where no end group is shown, it is not given here.
Tested on: MVF-PD-L1 peptide immunogen
Experiment: Immunogenicity in Balb/c mice, experiment 1 (CT26 WT): ELISA of sera vs each MVF-PD-L1 peptide immunogen
Assay type: in vivo
Conditions: for Immunogenicity (titers) 1′ Conc. 1:: Balb/c mice
Protocol: Immunogenicity of MVF-PD-L1 B-cell epitopes. New Zealand White rabbits were immunized with 1 mg of each MVF-peptide immunogens dissolved in dd H2O emulsified (1:1) in Montanide ISA 720 vehicle (Seppic) with 333 μg of N-acetylglucosamine-3yl-acetyl-1-alanyl-d-isoglutamine (nor-MDP). Rabbits were boosted with the same doses at 3-week's intervals. Blood was collected via the central auricular artery in rabbits. Blood was collected weekly (1Y+3, 2Y+1, 2Y+2,2Y+3, 3Y+1, 3Y+2 and sera tested for antibody titers by ELISA using the immunogens MVF-PD-L1 peptides. Sera (terminal) from rabbit (3Y+3) immunized with MVF-PD-1 peptide immunogens were tested individually versus the immunogen by ELISA. 200 ng/well peptide were used in duplicates to coat the ELISA plates. Titers are defined as the highest dilution of sera with an absorbance value of 0.2 after subtracting the blank.
FIGS. 5A, 5B, 5C, and 5D show the experimental scheme to test the immunization with PD-L1 in Balb/c mice. […] Balb/c mice 6-8 weeks old, were immunized with MVF-peptide immunogens emulsified in ISA 720 with nor-MDP three times and three weeks apart. Mice were immunized with MVF-PD-L1 vaccine constructs [PD-L1(36-53), PD-L1(50-67), PD-L1(95-112), PD-L1(130-147)] prior to tumor challenge. Blood was collected weekly and sera tested for antibody titers by ELISA. Two weeks after the third immunization (3Y), the mice were engrafted with CT26 WT tumor cells 10^5 per mouse Control mice were treated twice weekly with PBS as negative control and twice weekly with anti-mPD-L1 mAb (10F.9G2) as positive control starting 2 days after tumor challenge. Tumor growths were observed twice weekly and measured by calipers.
Immunogenicity of MVF-PD-L1 peptides in BALB/c mice immunized with various peptide constructs. Sera collected weekly were tittered against each individual MVF-PD-L1 peptide immunogen. The Pink bar refers to titers versus PD-L1 130 and the red bar refers to titers versus PD-1 (92-110).
In order to verify the efficacy of the PD-L1 epitope vaccines in vivo in the CT26 carcinoma cell line, Balb/c mice (10 mice/group) were immunized with 100 μg each of MVF-PD-L1 (36-53), MVF-PD-L1 (50-67), MVF-PD-L1 (95-112) and MVF-PD-L1 (130-147) emulsified with nor-MDP and Montanide 720 (1:1 ratio) SCHEME 1A (FIG. 5A). As detailed in SCHEME 1A-D (FIGS. 5A, 5B, 5C, and 5D), mice were immunized 3 times at 3 weeks intervals. […] All PD-L1 epitopes elicited high titers of PD-L1 anti-peptide antibodies by ELISA. […] We also investigated the combination of PD-1(92-110) with PD-L1-130-147.
For each peptide, vaccine antibodies were raised in New Zealand white rabbits, purchased from Charles River Laboratories (Wilmington, MA, USA). Rabbits were immunized with 1 mg of MVF chimeric peptide emulsified in Montanide ISA 720 (Seppic, Paris, France) and boosted 3 times at three week intervals. For mouse experiments, mice, 6-8 weeks old, were immunized with 0.1 mg of peptide emulsified in ISA720 (1:1 ratio). Mice were boosted with the respective doses at 3-week intervals. Blood was then collected and sera were tested for antibody titers. Sera were collected weekly and peptide vaccine antibodies were purified by affinity chromatography using a protein A/G column and the concentration was measured using Spectrophometer. All experiments were performed in accordance with the U.S. Public Health Service Policy on Humane Care and Use of Laboratory animals and approved by the Ohio State University Institutional Animals Care and Use Committee, detailed in the accepted protocol.
6-8 weeks old BALB/c mice (Charles River, Wilmington, MA) were used as standard animal models. Mouse CT26 colon carcinoma cell line was purchased from American Type Culture Collection Cells and were regularly cultured in RPMI1640 medium containing 10% FBS. CT26/HER2 cells were kindly provided by M. Penichet. Vaccines were dissolved in sterile water and emulsified in Montanide ISA 720 (1:1). […]

KLLSLIKGVIVHRLEGVEGPSLVTSEHELTCQAEGYPKAE (KLLSLIKGVIVHRLEGVEGPSLVTSEHELTCQAEGYPKAE-NH2) [PD-L1(130)]
Immunogenicity (titers) 1′ Conc. 1: (bleed 1Y + 3): 12800
Immunogenicity (titers) 1′ Conc. 1: (bleed 2Y + 1): 12800
Immunogenicity (titers) 1′ Conc. 1: (bleed 2Y + 2): >12800
Immunogenicity (titers) 1′ Conc. 1: (bleed 2Y + 3): 128000
Immunogenicity (titers) 1′ Conc. 1: (bleed 3Y + 1): 128000
Immunogenicity (titers) 1′ Conc. 1: (bleed 3Y + 2): 64000
Immunogenicity (titers) 1′ Conc. 1: (bleed 3Y + 3): 64000
ELISA absorbance of sera (bleed 1Y + 3 (1to100), dilution 100, primary antibody dilution 1:100): 1.571 and 1.562
ELISA absorbance of sera (bleed 1Y + 3 (1to100), dilution 200, primary antibody dilution 1:200): 1.513 and 1.428
ELISA absorbance of sera (bleed 1Y + 3 (1to100), dilution 400, primary antibody dilution 1:400): 1.359 and 1.348
ELISA absorbance of sera (bleed 1Y + 3 (1to100), dilution 800, primary antibody dilution 1:800): 1.151 and 1.105
ELISA absorbance of sera (bleed 1Y + 3 (1to100), dilution 1,600): 0.888 and 0.871
ELISA absorbance of sera (bleed 1Y + 3 (1to100), dilution 3,200): 0.580 and 0.528
ELISA absorbance of sera (bleed 1Y + 3 (1to100), dilution 6,400): 0.348 and 0.314
ELISA absorbance of sera (bleed 1Y + 3 (1to100), dilution 12,800): 0.204 and 0.196
ELISA absorbance of sera (bleed 2Y + 1 (1to100), dilution 100, primary antibody dilution 1:100): 1.492 and 1.522
ELISA absorbance of sera (bleed 2Y + 1 (1to100), dilution 200, primary antibody dilution 1:200): 1.511 and 1.473
ELISA absorbance of sera (bleed 2Y + 1 (1to100), dilution 400, primary antibody dilution 1:400): 1.450 and 1.355
ELISA absorbance of sera (bleed 2Y + 1 (1to100), dilution 800, primary antibody dilution 1:800): 1.299 and 1.243
ELISA absorbance of sera (bleed 2Y + 1 (1to100), dilution 1,600): 1.049 and 0.898
ELISA absorbance of sera (bleed 2Y + 1 (1to100), dilution 3,200): 0.757 and 0.652
ELISA absorbance of sera (bleed 2Y + 1 (1to100), dilution 6,400): 0.461 and 0.403
ELISA absorbance of sera (bleed 2Y + 1 (1to100), dilution 12,800): 0.286 and 0.239
ELISA absorbance of sera (bleed 2Y + 2 (1to100), dilution 100): 1.483 and 1.544
ELISA absorbance of sera (bleed 2Y + 2 (1to100), dilution 200): 1.510 and 1.484
ELISA absorbance of sera (bleed 2Y + 2 (1to100), dilution 400): 1.508 and 1.469
ELISA absorbance of sera (bleed 2Y + 2 (1to100), dilution 800): 1.407 and 1.322
ELISA absorbance of sera (bleed 2Y + 2 (1to100), dilution 1,600): 1.252 and 1.192
ELISA absorbance of sera (bleed 2Y + 2 (1to100), dilution 3,200): 0.977 and 0.852
ELISA absorbance of sera (bleed 2Y + 2 (1to100), dilution 6,400): 0.704 and 0.577
ELISA absorbance of sera (bleed 2Y + 3 (1to1k), dilution 100): 1.227 and 1.226
ELISA absorbance of sera (bleed 2Y + 3 (1to1k), dilution 200): 1.175 and 1.183
ELISA absorbance of sera (bleed 2Y + 3 (1to1k), dilution 400): 1.164 and 1.091
ELISA absorbance of sera (bleed 2Y + 3 (1to1k), dilution 800): 1.040 and 0.957
ELISA absorbance of sera (bleed 2Y + 3 (1to1k), dilution 1,600): 0.846 and 0.797
ELISA absorbance of sera (bleed 2Y + 3 (1to1k), dilution 3,200): 0.665 and 0.655
ELISA absorbance of sera (bleed 2Y + 3 (1to1k), dilution 6,400): 0.432 and 0.397
ELISA absorbance of sera (bleed 3Y + 1 (1to1k), dilution 100): 1.387 and 1.385
ELISA absorbance of sera (bleed 3Y + 1 (1to1k), dilution 200): 1.327 and 1.336
ELISA absorbance of sera (bleed 3Y + 1 (1to1k), dilution 400): 1.315 and 1.233
ELISA absorbance of sera (bleed 3Y + 1 (1to1k), dilution 800): 1.176 and 1.081
ELISA absorbance of sera (bleed 3Y + 1 (1to1k), dilution 1,600): 0.955 and 0.901
ELISA absorbance of sera (bleed 3Y + 1 (1to1k), dilution 3,200): 0.752 and 0.740
ELISA absorbance of sera (bleed 3Y + 1 (1to1k), dilution 6,400): 0.488 and 0.449
ELISA absorbance of sera (bleed 3Y + 2 (1to1k), dilution 100): 1.562 and 1.601
ELISA absorbance of sera (bleed 3Y + 2 (1to1k), dilution 200): 1.394 and 1.374
ELISA absorbance of sera (bleed 3Y + 2 (1to1k), dilution 400): 1.156 and 1.199
ELISA absorbance of sera (bleed 3Y + 2 (1to1k), dilution 800): 0.867 and 0.876
ELISA absorbance of sera (bleed 3Y + 2 (1to1k), dilution 1,600): 0.656 and 0.658
ELISA absorbance of sera (bleed 3Y + 2 (1to1k), dilution 3,200): 0.439 and 0.431
ELISA absorbance of sera (bleed 3Y + 2 (1to1k), dilution 6,400): 0.286
ELISA absorbance of sera (bleed 3Y + 3 (1to1k), dilution 100): 1.823 and 1.827
ELISA absorbance of sera (bleed 3Y + 3 (1to1k), dilution 200): 1.614 and 1.704
ELISA absorbance of sera (bleed 3Y + 3 (1to1k), dilution 400): 1.411 and 1.516
ELISA absorbance of sera (bleed 3Y + 3 (1to1k), dilution 800): 1.110 and 1.208
ELISA absorbance of sera (bleed 3Y + 3 (1to1k), dilution 1,600): 0.752 and 0.880
ELISA absorbance of sera (bleed 3Y + 3 (1to1k), dilution 3,200): 0.445 and 0.537
ELISA absorbance of sera (bleed 3Y + 3 (1to1k), dilution 6,400): 0.243

Reference: patent US12589143B2, “Human anti-PD-L1 peptide vaccines and methods of their use” (priority 2019, dated 2026)
